For the assay, the system named is P388 leukemia ip, CD2F1 mice, survival T/C. Briefly: NCI In Vivo Anticancer Drug Screen. Data for tumor model P388 Leukemia (intraperitoneal) in CD2F1 (CDF1) mice. As to conditions: endpoint: median survival time, higher = longer survival. Summed up: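 Mice carrying the transplanted tumor received test compound or vehicle. Survival was recorded in each group, and the value is the treated-group measurement divided by that of the vehicle-treated control group.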

Setting [1] is: dose: 100.0 mg/kg/injection, schedule: Q01DX001 (ip), vehicle: Klucel (hydroxypropylcellulose) (HPC).
Where [2] appears, read: dose: 200.0 mg/kg/injection, schedule: Q01DX001 (ip), vehicle: Klucel (hydroxypropylcellulose) (HPC).
Where [3] appears, read: dose: 400.0 mg/kg/injection, schedule: Q01DX001 (ip), vehicle: Klucel (hydroxypropylcellulose) (HPC).
Setting [4] is: dose: 50.0 mg/kg/injection, schedule: Q01DX005 (ip), vehicle: saline with Tween-80.
[5] abbreviates: dose: 100.0 mg/kg/injection, schedule: Q01DX005 (ip), vehicle: saline with Tween-80.
[6] abbreviates: dose: 200.0 mg/kg/injection, schedule: Q01DX005 (ip), vehicle: saline with Tween-80.
[7] abbreviates: dose: 60.0 mg/kg/injection, schedule: Q01DX005 (ip), vehicle: saline with Tween-80.
Setting [8] is: dose: 120.0 mg/kg/injection, schedule: Q01DX005 (ip), vehicle: saline with Tween-80.
Setting [9] is: dose: 240.0 mg/kg/injection, schedule: Q01DX005 (ip), vehicle: saline with Tween-80.
The mark [10] stands for this setting: dose: 12.5 mg/kg/injection, schedule: Q01DX005 (ip), vehicle: saline with Tween-80.
[11] abbreviates: dose: 25.0 mg/kg/injection, schedule: Q01DX005 (ip), vehicle: saline with Tween-80.

Values joined by “and” are separate entries in the source; they are usually repeats but may differ in a detail not shown here. Equal values may be shown once. Inconclusive results and toxic doses are left out.

With `CNCC(OC)c1ccc(O)c(O)c1` (stereo unspecified), the T/C runs as follows: (dose: 100.0 mg/kg/injection, schedule: Q01DX009 (ip), vehicle: saline) 104 % of control and 107 % of control; (dose: 200.0 mg/kg/injection, schedule: Q01DX009 (ip), vehicle: saline) 107 % of control and 118 % of control.
Turning to `Cn1cc(F)c(=O)n(C)c1=O`, the T/C (dose: 30.0 mg/kg/injection, schedule: Q04DX002 (ip), vehicle: saline) is 96 % of control; the T/C (dose: 60.0 mg/kg/injection, schedule: Q04DX002 (ip), vehicle: saline) was 100 % of control; the T/C (dose: 120.0 mg/kg/injection, schedule: Q04DX002 (ip), vehicle: saline) was 98 % of control; the T/C (dose: 125.0 mg/kg/injection, schedule: Q04DX002 (ip), vehicle: saline) was 96 % of control; the T/C (dose: 240.0 mg/kg/injection, schedule: Q04DX002 (ip), vehicle: saline) is 99 % of control; the T/C (dose: 250.0 mg/kg/injection, schedule: Q04DX002 (ip), vehicle: saline) is 105 % of control.
Regarding `COc1c2occc2c(NC(=O)CCl)c2ccc(=O)oc12`, the T/C was 100 % of control (dose: 100.0 mg/kg/injection, schedule: Q04DX002 (ip), vehicle: saline with Tween-80) and 93 % of control (dose: 200.0 mg/kg/injection, schedule: Q04DX002 (ip), vehicle: saline with Tween-80).
For `CNC(=O)/C=C/C1=CN2C(=O)c3ccc(C)c(O)c3NC(OC)C2C1` (stereo unspecified), the T/C is 102 % of control and 115 % of control (dose: 0.01 mg/kg/injection, schedule: Q01DX009 (ip), vehicle: suspension in saline); 116 % of control (dose: 0.02 mg/kg/injection, schedule: Q01DX009 (ip), vehicle: suspension in saline); 121 % of control (dose: 0.05 mg/kg/injection, schedule: Q01DX009 (ip), vehicle: saline); 120 % of control (dose: 0.05 mg/kg/injection, schedule: Q01DX009 (ip), vehicle: suspension in saline); 92 % of control (dose: 0.2 mg/kg/injection, schedule: Q01DX009 (ip), vehicle: saline); 97 % of control (dose: 0.2 mg/kg/injection, schedule: Q01DX009 (ip), vehicle: suspension in saline).
For `Nc1n[nH]c2ccccc12`, the T/C is 104 % of control and 107 % of control (dose: 50.0 mg/kg/injection, schedule: Q01DX005 (ip), vehicle: Klucel (hydroxypropylcellulose) (HPC)); 105 % of control and 107 % of control (dose: 100.0 mg/kg/injection, schedule: Q01DX005 (ip), vehicle: Klucel (hydroxypropylcellulose) (HPC)); 117 % of control (dose: 200.0 mg/kg/injection, schedule: Q01DX005 (ip), vehicle: Klucel (hydroxypropylcellulose) (HPC)).
Consider `O=C(O)Cc1cn2cc(Cl)cc(Cl)c2n1`, for which the T/C by setting is: under setting [1], 114 % of control; under setting [2], 101 % of control; under setting [3], 98 % of control.
For the compound `Cc1c(C=O)cc(-c2ccccc2)n1C`, the T/C by setting is: under setting [4], 89 % of control; under setting [5], 89 % of control; under setting [6], 91 % of control.
Take `COc1cc2c(C)cc(=O)oc2c(OCC(O)CN2CCCC2)c1OC` (stereo unspecified): the T/C was 96 % of control (dose: 60.0 mg/kg/injection, schedule: Q01DX005 (ip), vehicle: saline) and 99 % of control (dose: 120.0 mg/kg/injection, schedule: Q01DX005 (ip), vehicle: saline).
`CC(=O)Oc1ccc(OCc2ccccc2)c(OCc2ccccc2)c1`: the T/C was 102 % of control (dose: 50.0 mg/kg/injection, schedule: Q01DX009 (ip), vehicle: saline with Tween-80); 99 % of control (dose: 100.0 mg/kg/injection, schedule: Q01DX009 (ip), vehicle: saline with Tween-80); 107 % of control (dose: 200.0 mg/kg/injection, schedule: Q01DX009 (ip), vehicle: saline with Tween-80).
On to `COc1ccc(S(=O)(=O)N/N=C\c2cc(I)cc(I)c2O)cc1`, for which the T/C runs as follows: under setting [4], 101 % of control; under setting [5], 102 % of control; under setting [6], 100 % of control.
`C[Si](C)(CCCNCCN)O[Si](C)(C)CCCNCCN`: the T/C is, setting by setting: (dose: 15.0 mg/kg/injection, schedule: Q01DX005 (ip), vehicle: saline with Tween-80) 104 % of control; (dose: 30.0 mg/kg/injection, schedule: Q01DX005 (ip), vehicle: saline with Tween-80) 118 % of control; under setting [7], 94 % of control and 96 % of control.
Consider `N#CC(NCC1(O)CCCCC1)C(O)c1ccccc1` (stereo unspecified), for which the T/C runs as follows: (dose: 25.0 mg/kg/injection, schedule: Q01DX009 (ip), vehicle: suspension in saline) 94 % of control; (dose: 50.0 mg/kg/injection, schedule: Q01DX009 (ip), vehicle: suspension in saline) 108 % of control; (dose: 100.0 mg/kg/injection, schedule: Q01DX009 (ip), vehicle: suspension in saline) 109 % of control.
`O=C(Cc1nc2ccc(Cl)cc2[nH]c1=O)c1ccncc1`: the T/C runs as follows: under setting [7], 94 % of control; under setting [8], 100 % of control; under setting [9], 119 % of control.
As for `CCOc1c(OC)cc(-c2n[nH]c(=O)o2)cc1OC`, the T/C (dose: 33.75 mg/kg/injection, schedule: Q01DX009 (ip), vehicle: Klucel (hydroxypropylcellulose) (HPC)) is 90 % of control; the T/C (dose: 67.5 mg/kg/injection, schedule: Q01DX009 (ip), vehicle: Klucel (hydroxypropylcellulose) (HPC)) is 105 % of control; the T/C (dose: 135.0 mg/kg/injection, schedule: Q01DX009 (ip), vehicle: Klucel (hydroxypropylcellulose) (HPC)) is 99 % of control.
In the case of `O=C1C2CCC(C2)C1CN1CCCCC1` (stereo unspecified), the T/C (dose: 6.25 mg/kg/injection, schedule: Q01DX005 (ip), vehicle: saline with Tween-80) was 101 % of control; the T/C under setting [10] is 98 % of control; the T/C under setting [11] is 103 % of control.
With `O=C1c2ccccc2OCC1/C=N/O` (stereo unspecified), the T/C is 95 % of control under setting [7], 103 % of control under setting [8] and 101 % of control under setting [9].
In the case of `CCC1(O)CC(O)c2c(O)c3c(c(O)c2C1C(=O)OC)C(=O)c1cccc(O)c1C3=O` (stereo unspecified), the T/C (dose: 60.0 mg/kg/injection, schedule: Q01DX005 (ip), vehicle: Klucel (hydroxypropylcellulose) (HPC)) is 96 % of control; the T/C (dose: 120.0 mg/kg/injection, schedule: Q01DX005 (ip), vehicle: Klucel (hydroxypropylcellulose) (HPC)) was 94 % of control; the T/C (dose: 240.0 mg/kg/injection, schedule: Q01DX005 (ip), vehicle: Klucel (hydroxypropylcellulose) (HPC)) is 105 % of control.
In the case of `Cn1c(=O)c(C#N)c2n(C)c3ccccc3n2c1=O`, the T/C under setting [7] was 93 % of control, the T/C under setting [8] is 89 % of control and the T/C under setting [9] is 89 % of control.
Take `CCn1c(Cl)c(/C=N/Nc2ccccc2[N+](=O)[O-])c2cccc(/C=N\Nc3ccccc3[N+](=O)[O-])c21`: the T/C was 91 % of control under setting [1], 90 % of control under setting [2] and 87 % of control under setting [3].
Turning to `O=C(Nc1ccc(Cl)cc1)Nc1nnc2nc(C(C(=O)c3ccc(Cl)cc3Cl)c3nc4nnc(NC(=O)Nc5ccc(Cl)cc5)n4[nH]c3=O)c(=O)[nH]n12`, the T/C is 103 % of control under setting [7], 101 % of control under setting [8] and 101 % of control under setting [9].
Turning to `CCCOc1cc2c(cc1C(C)c1ccc(OCC)cc1)OCO2` (stereo unspecified), the T/C by setting is: under setting [10], 100 % of control; under setting [11], 110 % of control; under setting [4], 115 % of control; under setting [7], 105 % of control; under setting [8], 113 % of control.
Turning to `O=C1NC(=O)C2(CCCc3ccc(N(CCCl)CCCl)cc32)N1` (stereo unspecified), the T/C is, setting by setting: (dose: 0.38 mg/kg/injection, schedule: Q04DX003 (ip), vehicle: saline with Tween-80) 108 % of control; (dose: 0.75 mg/kg/injection, schedule: Q04DX003 (ip), vehicle: saline with Tween-80) 104 % of control; (dose: 1.5 mg/kg/injection, schedule: Q04DX003 (ip), vehicle: saline with Tween-80) 104 % of control; (dose: 12.5 mg/kg/injection, schedule: Q01DX009 (ip), vehicle: saline with Tween-80) 159 % of control; (dose: 25.0 mg/kg/injection, schedule: Q01DX009 (ip), vehicle: saline with Tween-80) 172 % of control; (dose: 50.0 mg/kg/injection, schedule: Q04DX003 (ip), vehicle: saline with Tween-80) 181 % of control. For the same compound, the T/C (dose: 100.0 mg/kg/injection, schedule: Q04DX003 (ip), vehicle: saline with Tween-80) was 181 % of control and the T/C (dose: 132.0 mg/kg/injection, schedule: Q04DX003 (ip), vehicle: saline with Tween-80) is 177 % of control.

The record behind these values is PubChem BioAssay AID330 (DTP/NCI, 2004).
